Patent US5936097A, “4,9-ethano-benzo(F)isoindole derivatives as farnesyl transferase inhibitors” (Rhone-Poulenc Rorer, S.A., priority 1995, dated 1999)

These molecules were tested against T1, human farnesyl transferase (Homo sapiens, UniProt P49354+P49356) (assay: inhibition of farnesyl transferase ((3H) farnesyl transfer from (3H) FPP to p21 H-ras)). Details: not given.
T1 construct: human farnesyl transferase purified from THP1 cell cultures; endogenous in cells; host or cells: THP1 cell cultures (enzyme purified from the cells)
Format: biochemical
Experimental: Farnesyl transferase activity is determined by the amount of (^3 H) farnesyl transferred from (^3 H) farnesylpyrophosphate [(^3 H) FPP] to the p21 H-ras protein. The standard reaction mixture is composed, for a final volume of […], of 50 mM Tris-HCl, 5 mM MgCl2, 5 mM dithiotreitol, 0.2% octyl b-D-glucopyranoside, 200 picomol p21 H-ras, 4.5 picomol (^3 H) FPP (activity 61000 dpm/picomol).
Reaction is initiated by adding approximately 5 ng of human farnesyl transferase purified from THP1 cell cultures. After incubation for 20 minutes at 37° C. in a microtitration plate containing 96 1-cm^3 wells per plate (Titer Plate®, Beckman), the reaction is stopped by adding 0.4 cm^3 of 0.1% SDS in methanol at 0° C. The mixture is then treated with 0.4 cm^3 of 30% trichloroacetic® acid (TCA) in methanol. The plates are left in ice for 1 hour. The precipitated contents are then retained on Filtermat®, Pharmacia), glass® fibre membranes with the filtration unit (Combi Cell Harvester®, Skatron), and rinsed with 6% trichloroacetic acid in distilled water. The membranes are dried in a microwave oven, then impregnated with scintillation medium by melting of Meltilex® (Pharmacia) under hot air, and lastly counted in cpm in a b-Plate counter® (LKB). Each test is repeated 3 times.
The unit of activity is defined as 1 picomole of (^3 H) FPP transferred to p21 H-ras in 20 minutes.
The percentage inhibition values are obtained by comparison of the tests with and without inhibitor after deduction of blanks, the IC50 values being measured on the basis of the inhibitions obtained with 9 different concentrations using Enzfitter® or Grafit® software.

SMILES	IC50 [nM]
COc1ccccc1CC(=O)N1C[C@H]2[C@@]3(c4ccccc4)CC[C@H](c4ccccc43)[C@@]2(C(=O)O)C1 [Example 47, 4,9-ethano-2-[(2-methoxyphenyl)acetyl]-9-phenyl-2,3,3a(S),4(R),9(R),9a(S)-hexahydro-1H-benzo[f]isoindole-3a-carboxylic acid]	140
COc1ccccc1NC(=O)N1C[C@@H]2[C@]3(c4ccccc4)CC[C@@H](c4ccccc43)[C@]2(C(=O)O)C1 (relative stereo) [Example 66, (3aRS,4SR,9SR,9aRS)-4,9-Ethano-2-(2-methoxyphenyl)aminocarbonyl-9-phenyl-2,3,3a,4,9,9a-hexahydro-1H-benzo[f]isoindole-3a-carboxylic acid]	9200
CCOc1ccccc1CC(=O)N1C[C@H]2[C@@]3(c4ccccc4)CC[C@H](c4ccccc43)[C@@]2(C(=O)O)C1 [Example 75]	370
O=C(Cc1ccccc1Cl)N1C[C@@H]2[C@]3(c4ccccc4)CC[C@@H](c4ccccc43)[C@]2(C(=O)O)C1 (relative stereo) [Example 61, (3aRS,4SR,9SR,9aRS)-4,9-Ethano-2-(2-chlorophenyl)acetyl-9-phenyl-2,3,3a,4,9,9a-hexahydro-1H-benzo[f]isoindole-3a-carboxylic acid]	4700
COc1ccccc1CC(=O)N1C[C@@H]2[C@]3(c4ccccc4)CC[C@@H](c4ccc(I)cc43)[C@]2(C(=O)O)C1 (relative stereo) [Example 43, (3aRS,4SR,9SR,9aRS)-4,9-ethano-7-iodo-2-(2-methoxyphenyl)acetyl-9-phenyl-2,3,3a,4,9,9a-hexahydro-1H-benzo[f]isoindole-3a-carboxylic acid]	700
CCOc1ccccc1CC(=O)N1C[C@H]2[C@@]3(c4ccccc4)CC[C@H](c4ccccc43)[C@@]2(C(=O)O)C1 (relative stereo) [Example 74, (3aRS,4SR,9SR,9aRS)-4,9-ethano-2-(2-ethoxyphenyl)acetyl-9-phenyl-2,3,3a,4,9,9a-hexahydro-1H-benzo[f]isoindole-3a-carboxylic acid]	190

Same assay, conditions: human farnesyl transferase purified from THP1 cell cultures; p21 H-ras substrate; 20 minutes at 37° C.; 9 concentrations; read-out: in vitro inhibitory activity IC50

IC50 [nM]	SMILES
800	CCCOc1ccccc1CC(=O)N1C[C@H]2[C@@]3(c4ccccc4)CC[C@H](c4ccccc43)[C@@]2(C(=O)O)C1 (relative stereo) [Example 80, (3aRS,4SR,9SR,9aRS)-4,9-ethano-9-phenyl-2-(2-n-propoxyphenyl)acetyl-2,3,3a,4,9,9a-hexahydro-1H-benzo[f]isoindole-3a-carboxylic acid]
450	C=C(C(=O)N1C[C@H]2[C@@]3(c4ccccc4)CC[C@H](c4ccccc43)[C@@]2(C(=O)NCc2ccccn2)C1)c1ccccc1OC [Example 93, (3aS,4R,9R,9aS)-N-[(2-pyridyl)-methyl]-4,9-ethano-2-[(2-methoxyphenyl)prop-2-en-1-oyl]-9-phenyl-2,3,3a,4,9,9a-hexahydro-1H-benzo[f]isoindole-3a-carboxamide]
150	COc1ccccc1CC(=O)N1CC2C3(c4ccccc4)CCC(c4ccccc43)C2(C(=O)N[C@@H](CCSC)C(=O)O)C1 (stereo partly drawn) [Example 51, N-[(3aRS,4SR,9SR,9aRS)-4,9-ethano-2-(2-methoxy-phenyl)acetyl-9-phenyl-2,3,3a,4,9,9a-hexahydro-1H-benzo[f]isoindol-3a-yl]carbonyl-L-methionine]
2950	CC(C)Oc1ccccc1CC(=O)N1C[C@@H]2[C@]3(c4ccccc4)CC[C@@H](c4ccccc43)[C@]2(C(=O)O)C1 (relative stereo) [Example 40, (3aRS,4SR,9SR,9aRS)-4,9-ethano-2-(2-isopropyl-oxyphenyl)acetyl-9-phenyl-2,3,3a,4,9,9a-hexahydro-1H-benzo[f]isoindole-3a-carboxylic acid]
8400	CONC(=O)[C@@]12CN(C(=O)Cc3ccccc3OC)C[C@@H]1[C@]1(c3ccccc3)CC[C@H]2c2ccccc21 (relative stereo) [Example 56, (3aRS,4SR,9SR,9aRS)-N-methoxy-4,9-ethano-2-(2-methoxyphenyl)acetyl-9-phenyl-2,3,3a,4,9,9a-hexahydro-1H-benzo[f]isoindole-3a-carboxamide]
1100	COc1ccccc1C1(C(=O)N2C[C@@H]3[C@]4(c5ccccc5)CC[C@@H](c5ccccc54)[C@]3(C(=O)O)C2)CC1 (racemic) [Example 41, (3aRS,4SR,9SR,9aRS)-4,9-ethano-2-[1-(2-methoxyphenyl)-cyclopropan-1-oyl]-9-phenyl-2,3,3a,4,9,9a-hexa-hydro-1H-benzo[f]isoindole-3a-carboxylic acid]
590	COc1ccccc1CC(=O)N1CC2C3(c4ccccc4)CCC(c4ccccc43)C2(C(=O)N[C@@H](CS)C(=O)O)C1 (stereo partly drawn) [Example 53, N-[(3aRS,4SR,9SR,9aRS)-4,9-ethano-2-(2-methoxyphenyl)acetyl-9-phenyl-2,3,3a,4,9,9a-hexahydro-1H-benzo[f]isoindol-3a-yl]carbonyl-L-cysteine]
4700	COc1ccccc1CC(=O)N1C[C@H]2[C@@]3(c4ccccc4)CC[C@H](c4ccccc43)[C@@]2(C(N)=O)C1 (relative stereo) [Example 3, (3aRS, 4SR, 9SR, 9aRS)-4,9-ethano-2-(2-methoxyphenyl)acetyl-9-phenyl-2,3,3a,4,9,9a-hexahydro-1H-benzo[f]isoindole-3a-carboxamide]
1300	COc1ccccc1CC(=O)N1C[C@@H]2[C@]3(c4ccccc4)CC[C@@H](c4ccccc43)[C@]2(C(=O)NCCC(=O)O)C1 (relative stereo) [Example 50, N-[(3aRS,4SR,9SR,9aRS)-4,9-ethano-2-(2-methoxyphenyl)acetyl-9-phenyl-2,3,3a,4,9,9a-hexahydro-1H-benzo[f]isoindol-3a-yl]carbonyl-3-aminopropanoic acid]
3030	COc1ccccc1CC(=O)N1C[C@H]2[C@@]3(c4ccccc4)CC[C@H](c4ccccc43)[C@@]2(NC(=O)CC(=O)O)C1 (relative stereo) [Example 16, (3aRS, 4SR, 9SR, 9aRS)-4,9-ethano-3a-carboxylacetylamino-2-(2-methoxyphenyl)acetyl-9-phenyl-2,3,3a,4,9,9a-hexahydro-1H-benzo[f]isoindole]
2600	COc1ccccc1CC(=O)N1C[C@H]2[C@@]3(c4ccccc4)CC[C@H](c4ccccc43)[C@@]2(CCC(=O)O)C1 (relative stereo) [Example 25, 3-[(3aRS, 4SR, 9SR, 9aRS)-4,9-ethano-2-(2-methoxyphenyl)acetyl-9-phenyl-1,2,3,3a,9,9a-hexahydro-1H-benzo[f]isoindol-3a-yl]propionic acid]
1100	COc1ccccc1CC(=O)N1C[C@@H]2[C@]3(c4ccccc4)CC[C@@H](c4ccccc43)[C@]2(C(=O)N(C)CC(=O)O)C1 (relative stereo) [Example 49, N-[(3aRS,4SR,9SR,9aRS)-4,9-ethano-2-(2-methoxyphenyl)acetyl-9-phenyl-2,3,3a,4,9,9a-hexahydro-1H-benzo[f]isoindol-3a-yl]carbonyl-N-methylglycine]
5150	C=C(C(=O)N1C[C@H]2[C@@]3(c4ccccc4)CC[C@H](c4ccccc43)[C@@]2(C(=O)N[C@H](C)c2cccc3ccccc23)C1)c1ccccc1OC [Example 83, (3aS,4R,9R,9aS)-N-[(R)-1-(1-naphthyl)ethyl]-4,9-ethano-2-[(2-methoxyphenyl)prop-2-en-1-oyl]-9-phenyl-2,3,3a,4,9,9a-hexahydro-1H-benzo[f]isoindole-3a-carboxamide]
4800	COc1ccccc1CC(=O)N1C[C@H]2[C@@]3(c4ccccc4)CC[C@H](c4ccccc43)[C@@]2(CC(=O)NCC(=O)O)C1 (relative stereo) [Example 20, N-[(3aRS, 4SR, 9SR, 9aRS)-4,9-ethano-2-(2-methoxyphenyl)acetyl-9-phenyl-2,3,3a,4,9,9a-hexahydro-1H-benzo[f]isoindol-3a-yl]acetylglycine]
9400	COc1ccccc1CC(=O)N1C[C@H]2[C@@]3(c4ccccc4)CC[C@H](c4ccccc43)[C@@]2(C(=O)NCCN(C)C)C1 (relative stereo) [Example 4, (3aRS, 4SR, 9SR, 9aRS)-N-(2-dimethylaminoethyl)-4,9-ethano-2-(2-methoxyphenyl)acetyl-9-phenyl-2,3,3a,4,9,9a-hexahydro-1H-benzo[f]isoindole-3a-carboxamide]
7400	COc1ccc(CSSCc2ccc(OC)c(CC(=O)N3CC4C5(c6ccccc6)CCC(c6ccccc65)C4(C(=O)O)C3)c2)cc1CC(=O)N1CC2C3(c4ccccc4)CCC(c4ccccc43)C2(C(=O)O)C1 (racemic) [Example 37, disulphide of (3aRS, 4SR, 9SR, 9aRS)-4,9-ethano-2-(2-methoxy-5-(mercaptomethyl)-phenyl)acetyl-9-phenyl-2,3,3a,4,9,9a-hexahydro-1H-benzo[f]isoindole-3a-carboxylic acid]
1270	COc1ccccc1CC(=O)N1C[C@@H]2[C@]3(c4ccccc4)CC[C@@H](c4ccccc43)[C@]2(C(=O)NOCc2ccccc2)C1 (racemic) [Example 45, (3aRS,4SR,9SR,9aRS)-N-benzyloxy-4,9-ethano-2-(2-methoxyphenylacetyl)-9-phenyl-2,3,3a,4,9,9a-hexahydro-1H-benzo[f]isoindole-3a-carboxamide]
